In patent US20210361581A1, “ADDITIVE FOR A POWDER MATERIAL INTENDED FOR COMPACTION INTO SHAPED BODIES” (IOI OLEO GMBH, priority 2018, published 2021):

Experiments:
[1] = Contact angle with water (hydrophobicity); format: physicochemical; settings: 16 weeks at room temperature (20° C.) and at 40° C., against start value
Procedure: An advantageous property of the PGFEs for an additive in accordance with claim 1 which should be considered is the hydrophobicity, which can be determined by determining the contact angle. The determination of the hydrophobicity is carried out by determining the contact angle between the PGFE in the solid physical state and a droplet of purified water. According to Young's equation, cos θ=(γSV−γSL)/γLV, wherein γSL is the interfacial tension between the PGFE and water, γLV is the interfacial tension of the water droplet and γSV is the surface tension between the PGFE and the surrounding air. θ is the contact angle. Thus, the larger the contact angle θ, the higher is the surface tension between the PGFE and the water and the higher is the hydrophobicity of the PGFE under investigation. The contact angles for the proposed polyglycerol fatty acid esters also correlate with the HLB value which is often used in pharmaceutical technology, which is on a scale of 0 to 20 and provides information regarding the ratio of lipophilic to hydrophilic molecular fractions, wherein the hydrophilic fraction increases with increasing HLB value. […]

[2] = Lopes et al., J. Pharm. Sci. 104: 4257-4265, 2015; cited from earlier work

variation (deviation) of contact angle with water after 16 weeks [1]: 40 °
Structure (SMILES): CCCCCCCCCCCCCCCCCC(=O)OCC(COC(=O)CCCCCCCCCCCCCCCCC)OC(=O)CCCCCCCCCCCCCCCCC [glycerol tristearate]
increase in the crystal thickness after complete transformation of a- into b-modification [2]: approximately 67%
